The record followed here is paper PMC9026428, “New Peptide Based Fluconazole Conjugates with Expanded Molecular Targets” (Pharmaceutics, 2022).

≈ marks a conversion by molar mass, not a printed value. Non-standard residues stand in square brackets, D forms with d. Residues, ends and D or L forms follow the SMILES beside them. *: point of attachment. X1 = O=C(CCCC(=O)*)OC(Cn1cncn1)(Cn1cncn1)c1ccc(F)cc1F; Nle = CCCC[C@H](N)C(=O)O

In one data set the test system is Candida albicans 138. Description: microbe, parasite or virus in culture. To be noted: C. albicans 138 (fluconazole-resistant clinical isolate), RPMI 1640/MOPS pH 7.0, 24 h, 37 °C, triplicate; for MIC50: at least 50% growth inhibition vs growth control; for MIC90: lowest concentration with no visible growth. An outline of the steps:
(§1)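 CLSI M27-A3-based microdilution, RPMI/MOPS pH 7.0, 24 h at 37 °C, ~1% DMSO.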

The subject of the next data set is Candida albicans 190. Nature of the data set: microbe, parasite or virus in culture. The following applies: C. albicans 190 (fluconazole-resistant clinical isolate), RPMI 1640/MOPS pH 7.0, 24 h, 37 °C, triplicate; for MIC50: at least 50% growth inhibition vs growth control; for MIC90: lowest concentration with no visible growth. An outline of the steps:
(§2)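 Yeasts were exposed to compounds in MOPS-buffered RPMI 1640 (pH 7.0) following a modified CLSI M27-A3 protocol and incubated 24 h at 37 °C. Wells were then subcultured onto drug-free YPD agar for a further 24 h to obtain minimum fungicidal concentrations.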

For data set [1], the system named is Candida albicans ATCC 10231. Nature of the data set: microbe, parasite or virus in culture. To be noted: C. albicans ATCC 10231, RPMI 1640/MOPS pH 7.0, 24 h, 37 °C, triplicate; for MIC50: at least 50% growth inhibition vs growth control; for MIC90: lowest concentration with no visible growth. An outline of the steps: as §1
Another data set deals with Candida albicans 247. Description: microbe, parasite or virus in culture. To be noted: C. albicans 247 (fluconazole-resistant clinical isolate), RPMI 1640/MOPS pH 7.0, 24 h, 37 °C, triplicate; for MIC50: at least 50% growth inhibition vs growth control; for MIC90: lowest concentration with no visible growth. An outline of the steps: as §2
The next data set relates to Candida albicans SC 5314. Description: microbe, parasite or virus in culture. The following applies: C. albicans SC 5314, 37 °C; for MIC50 / MIC90: RPMI 1640/MOPS pH 7.0, 24 h, triplicate; for MIC50: at least 50% growth inhibition vs growth control; for MIC90: lowest concentration with no visible growth; for MFC: aliquots plated on YPD agar, 24 h, lowest concentration with no colony growth. An outline of the steps: as §2

Another data set concerns Candida albicans Gu4. Nature of the data set: microbe, parasite or virus in culture. The following applies: C. albicans Gu4 (fluconazole-sensitive isolate), RPMI 1640/MOPS pH 7.0, 24 h, 37 °C, triplicate; for MIC50: at least 50% growth inhibition vs growth control; for MIC90: lowest concentration with no visible growth. An outline of the steps:
as §1

The next data set concerns Candida albicans B3. Description: microbe, parasite or virus in culture. The following applies: C. albicans B3 (fluconazole-sensitive isolate), RPMI 1640/MOPS pH 7.0, 24 h, 37 °C, triplicate; for MIC50: at least 50% growth inhibition vs growth control; for MIC90: lowest concentration with no visible growth. An outline of the steps:
as §2

In the next data set the test system is Candida albicans 574. Description: microbe, parasite or virus in culture. To be noted: C. albicans 574 (fluconazole-resistant clinical isolate), RPMI 1640/MOPS pH 7.0, 24 h, 37 °C, triplicate; for MIC50: at least 50% growth inhibition vs growth control; for MIC90: lowest concentration with no visible growth. An outline of the steps:
as §2

For another data set, the system named is Candida albicans B4. Nature of the data set: microbe, parasite or virus in culture. The following applies: C. albicans B4 (fluconazole-resistant, MDR1 overexpression), RPMI 1640/MOPS pH 7.0, 24 h, 37 °C, triplicate; for MIC50: at least 50% growth inhibition vs growth control; for MIC90: lowest concentration with no visible growth. An outline of the steps: as §1

Data set [2] has as its system HUVEC cells (human umbilical venous endothelial primary cells). Nature of the data set: MTT cytotoxicity assay. To be noted: HUVEC cells, MTT, 72 h, 37 °C, 100–1.5 μM, biological triplicates. Here is the method:
(§3) The assessment of antifungal potential of synthesized agents was carried out using four reference strains (C. albicans ATCC 10231, C. albicans SC5314, C. glabrata DSM […] and C. krusei DSM […]) and six clinical isolates of fluconazole-resistant C. albicans that were provided by the Hospital of Medical University of Gdansk, Poland. Moreover, four C. albicans isolates, assigned as B3, B4, Gu4 and Gu5, were used for investigation whether the synthesized fluconazole derivatives were effectively removed from the yeast cells by the drug efflux transporters, as in the case of fluconazole. These strains were kindly provided by Prof. Joachim Morschhäuser from University of Würzburg (Würzburg, Germany). Strains Gu4 and B3 were fluconazole-sensitive isolates obtained from early infection episodes, while Gu5 and B4 were the corresponding fluconazole-resistant isolates obtained from later episodes in the same patients treated with fluconazole. The lack of susceptibility of the Gu5 strain to fluconazole was a consequence of overexpression of CDR1/2 genes encoding ABC transporters, whereas the resistance of B4 strain was caused by overexpression of the MDR1 gene encoding a membrane transport protein of the major facilitator superfamily (MFS). All of these Candida spp. strains were maintained on YPD agar plates (1% (w/v) yeast extract, 2% (w/v) peptone, 2% (w/v) glucose, 2% (w/v) agar) at 30 °C for 16–24 h. For all of the assays aimed at assessing the antifungal potential of the synthesized agents, the yeasts were cultivated at 37 °C in RPMI 1640 medium (with L-glutamine, without sodium bicarbonate, Sigma-Aldrich, Darmstadt, Germany)) buffered to a pH of 7.0 with 0.165 M morpholinepropanesulfonic acid (MOPS) buffer (Sigma-Aldrich). In this study, we used the human foreskin fibroblast cell line Hs27 (ATCC CRL 1634TM) and the human endothelial cell line HUVEC (C2519A), purchased from Lonza Group AG, (Basel, Switzerland). The Hs27 cells were maintained in cell media consisting of Dulbecco’s modified Eagles medium (DMEM), (Corning, Arizona, USA) with 10% fetal bovine serum (FBS), (Corning, Port Elizabeth, South Africa), 1% penicillin/streptomycin (Sigma-Aldrich Inc., Darmstadt, Germany), and 1% L-glutamine (Corning, Arizona, USA). The human endothelial cell line was maintained in cell media consisting of Endothelial Cell Growth Medium-2 Single Quots Kit (Lonza, USA). Both cell lines were cultured in an incubator at 37 °C and 5% CO2.
(§4) Hs27 and HUVEC mammalian cell lines were cultured as mentioned above. Once cell lines were about 80% confluent, cells were counted by a hemacytometer (Hausser Scientific, Horsham, PA, USA) and plated in 96-well microtiter plates at concentrations of 4500 cells per well for Hs27 and 2000 cells per well for HUVEC. Cells were allowed to attach overnight. […] The final concentration of DMSO was ensured to be around 1% in all experiments. Cells were incubated with studied compounds for 72 h at 37 °C and 5% CO2. After incubation, 20 µL of MTT solution in PBS (4 mg/mL) was added to all wells and incubated further for 3 h at 37 °C. Formed formazan crystals were dissolved in 150 µL DMSO, and absorbance was measured using an Asys UVM340 multi-well plate reader at λ = 540 nm. Cytotoxicity was determined compared to drug-free control. All experiments were performed in biological triplicates.

The nature of a further data set: MTT cytotoxicity assay. To be noted: human. As to the method: as §3, §4

With `CSCC[C@H](NC(=O)[C@H](C)NC(=O)[C@H](CCCNC(=N)N)NC(=O)[C@H](CCCCN)NC(=O)[C@H](Cc1c[nH]c2ccccc12)NC(=O)[C@H](CCC(N)=O)NC(=O)[C@H](Cc1ccccc1)NC(=O)[C@H](CS)NC(=O)CCCC(=O)OC(Cn1cncn1)(Cn1cncn1)c1ccc(F)cc1F)C(=O)N[C@@H](CCCNC(=N)N)C(=O)N[C@@H](CCCCN)C(=O)N[C@H](C(=O)N[C@@H](CCCNC(=N)N)C(N)=O)C(C)C` [FLCpOH-HLopt2-NH2] (X1-CFQWKRAMRKVR-NH2), the MIC50 in the data set on Candida albicans 138 is on record as greater than 250 µM; in the data set on Candida albicans 190, 250 µM (≈ 503 µg/mL); in data set [1] it was 125 µM (≈ 251 µg/mL); in the data set with Candida albicans 247, greater than 250 µM; with Candida albicans SC 5314, 62 µM (≈ 125 µg/mL); against Candida albicans Gu4, greater than 250 µM. In addition, the MIC50 with Candida albicans B3 is recorded as greater than 250 µM; in the data set on Candida albicans 574 it was 250 µM (≈ 503 µg/mL); against Candida albicans B4, greater than 250 µM. The MIC90 against Candida albicans 138 is greater than 250 µM; in the data set on Candida albicans 190, greater than 250 µM; in data set [1], 250 µM (≈ 503 µg/mL); in the data set with Candida albicans 247, greater than 250 µM; in the data set on Candida albicans SC 5314 it was 125 µM (≈ 251 µg/mL); against Candida albicans Gu4, greater than 250 µM. For the same molecule, the MIC90 with Candida albicans B3, in the data set with Candida albicans 574 and against Candida albicans B4 was greater than 250 µM each time. Moreover, the “In vitro cytotoxicity IC90 ± SEM” value in data set [2] was greater than 100 µM. In addition, in “MTT cytotoxicity assay”, the IC50 at 72 h is greater than 100 µM.

As to `CSCC[C@H](NC(=O)[C@H](CCCNC(=N)N)NC(=O)[C@H](Cc1c[nH]c2ccccc12)NC(=O)[C@H](CCC(N)=O)NC(=O)[C@H](Cc1c[nH]c2ccccc12)NC(=O)[C@H](CCCNC(=N)N)NC(=O)[C@H](CCCNC(=N)N)NC(=O)[C@H](CS)NC(=O)[C@H](CCCCN)NC(=O)[C@H](Cc1ccccc1)NC(=O)CCCC(=O)OC(Cn1cncn1)(Cn1cncn1)c1ccc(F)cc1F)C(N)=O` [FLCpOH-LFacinB(2-11)-NH2] (X1-FKCRRWQWRM-NH2), the MIC50 was 190 µM (≈ 361 µg/mL) with Candida albicans 138; 190 µM (≈ 361 µg/mL) with Candida albicans 190; 125 µM (≈ 237 µg/mL) in data set [1]; 190 µM (≈ 361 µg/mL) in the data set with Candida albicans 247; 62 µM (≈ 118 µg/mL) with Candida albicans SC 5314; greater than 250 µM against Candida albicans Gu4. The MIC50 against Candida albicans B3 came to 125 µM (≈ 237 µg/mL); with Candida albicans 574, 190 µM (≈ 361 µg/mL); against Candida albicans B4, 190 µM (≈ 361 µg/mL). The MIC90 against Candida albicans 138 was 250 µM (≈ 475 µg/mL); against Candida albicans 190, 250 µM (≈ 475 µg/mL); in [1], 250 µM (≈ 475 µg/mL); with Candida albicans 247, 250 µM (≈ 475 µg/mL); with Candida albicans SC 5314, 125 µM (≈ 237 µg/mL); against Candida albicans Gu4 it was greater than 250 µM. Besides, the MIC90 in the data set on Candida albicans B3, against Candida albicans 574 and against Candida albicans B4 was 250 µM (≈ 475 µg/mL) each time. Also, the MFC in the data set on Candida albicans SC 5314 was 250 µM (≈ 475 µg/mL). In addition, the “In vitro cytotoxicity IC90 ± SEM” value in data set [2] was greater than 100 µM. For the same molecule, the half-maximal inhibitory concentration (IC50) at 72 h in the data set “MTT cytotoxicity assay” was greater than 100 µM.

With `CCCC[C@H](NC(=O)CCCC(=O)OC(Cn1cncn1)(Cn1cncn1)c1ccc(F)cc1F)C(=O)N[C@@H](Cc1ccccc1)C(=O)N[C@@H](CCCCN)C(=O)N[C@@H](CS)C(=O)N[C@@H](CCCNC(=N)N)C(=O)N[C@@H](CCCNC(=N)N)C(=O)N[C@@H](Cc1c[nH]c2ccccc12)C(=O)N[C@@H](CCC(N)=O)C(=O)N[C@@H](Cc1c[nH]c2ccccc12)C(=O)N[C@@H](CCCNC(=N)N)C(=O)N[C@@H](CCCC)C(=O)N[C@@H](CCCCN)C(=O)N[C@@H](CCCCN)C(=O)N[C@@H](CC(C)C)C(=O)NCC(N)=O` [FLCpOH-LFacinB[Nle^1,11]-NH2] (X1-[Nle]FKCRRWQWR[Nle]KKLG-NH2), the MIC50 against Candida albicans 138 turned out to be 23 µM (≈ 55.7 µg/mL); with Candida albicans 190 it was 90 µM (≈ 218 µg/mL); in [1] it was 45 µM (≈ 109 µg/mL); against Candida albicans 247, 45 µM (≈ 109 µg/mL); in the data set with Candida albicans SC 5314, 23 µM (≈ 55.7 µg/mL); in the data set on Candida albicans Gu4, 125 µM (≈ 302 µg/mL). Besides, the results for the MIC50 against Candida albicans B3, with Candida albicans 574 and against Candida albicans B4 were 45 µM (≈ 109 µg/mL), 45 µM (≈ 109 µg/mL) and 250 µM (≈ 605 µg/mL), respectively. For the same molecule, the MIC90 with Candida albicans 138 was found to be 31 µM (≈ 75 µg/mL); against Candida albicans 190 it was 125 µM (≈ 302 µg/mL); in [1], 62 µM (≈ 150 µg/mL); against Candida albicans 247, 62 µM (≈ 150 µg/mL); in the data set with Candida albicans SC 5314, 31 µM (≈ 75 µg/mL); in the data set with Candida albicans Gu4 it was 250 µM (≈ 605 µg/mL). For the same molecule, the MIC90 is reported as 62 µM (≈ 150 µg/mL) against Candida albicans B3, 62 µM (≈ 150 µg/mL) in the data set with Candida albicans 574 and greater than 250 µM against Candida albicans B4. In addition, in the data set with Candida albicans SC 5314, the MFC is 250 µM (≈ 605 µg/mL). Moreover, in [2], the “In vitro cytotoxicity IC90 ± SEM” value was greater than 100 µM. The IC50 at 72 h in “MTT cytotoxicity assay” worked out at 75.6 ± 1.73 µM.
